Test results published in ChEMBL document CHEMBL2401692, “Synthesis, structure-activity relationships, and in vivo efficacy of the novel potent and selective anaplastic lymphoma kinase (ALK) inhibitor 5-chloro-N2-(2-isopropoxy-5-methyl-4-(piperidin-4-yl)phenyl)-N4-(2-(isopropylsulfonyl)phenyl)pyrimidine-2,4-diamine (LDK378) currently in phase 1 and phase …” (J Med Chem, 2013).
In brackets after ≈: the same amount, converted by molar mass.

Tests used:
KARPAS-299 = assay: cells; conditions: Homo sapiens
BaF3 = assay: cells; conditions: Mus musculus
[1] = Solubility of the compound […] at pH 6.8; type: physicochemical
Cytochrome P450 3A4 = Cytochrome P450 3A4 (Homo sapiens, UniProt P08684); assay: Inhibition of CYP3A4 in human liver microsomes using midazolam as substrate by LC-MS/MS analysis; type: ADME, Microsome
[2] = Intrinsic clearance in human liver microsomes; type: ADME, Microsome; conditions: read-out: CLH
[3] = Intrinsic clearance in mouse liver microsomes; type: ADME, Microsome; conditions: read-out: CLH
[4] = Intrinsic clearance in rat liver microsomes; type: ADME, Microsome; conditions: read-out: CLH
[5] = target: T1, Voltage-gated inwardly rectifying potassium channel KCNH2 (Homo sapiens, UniProt Q12809)
Description: Inhibition of human ERG by dofetilide binding assay

[6] = Oral bioavailability in Sprague-Dawley rat at 10 mg/kg; type: ADME, organism-based; conditions: in vivo
[7] = target: T1, Voltage-gated inwardly rectifying potassium channel KCNH2; assay: Inhibition of human ERG by patch-clamp technique

T1 sequence (Q12809 whole entry): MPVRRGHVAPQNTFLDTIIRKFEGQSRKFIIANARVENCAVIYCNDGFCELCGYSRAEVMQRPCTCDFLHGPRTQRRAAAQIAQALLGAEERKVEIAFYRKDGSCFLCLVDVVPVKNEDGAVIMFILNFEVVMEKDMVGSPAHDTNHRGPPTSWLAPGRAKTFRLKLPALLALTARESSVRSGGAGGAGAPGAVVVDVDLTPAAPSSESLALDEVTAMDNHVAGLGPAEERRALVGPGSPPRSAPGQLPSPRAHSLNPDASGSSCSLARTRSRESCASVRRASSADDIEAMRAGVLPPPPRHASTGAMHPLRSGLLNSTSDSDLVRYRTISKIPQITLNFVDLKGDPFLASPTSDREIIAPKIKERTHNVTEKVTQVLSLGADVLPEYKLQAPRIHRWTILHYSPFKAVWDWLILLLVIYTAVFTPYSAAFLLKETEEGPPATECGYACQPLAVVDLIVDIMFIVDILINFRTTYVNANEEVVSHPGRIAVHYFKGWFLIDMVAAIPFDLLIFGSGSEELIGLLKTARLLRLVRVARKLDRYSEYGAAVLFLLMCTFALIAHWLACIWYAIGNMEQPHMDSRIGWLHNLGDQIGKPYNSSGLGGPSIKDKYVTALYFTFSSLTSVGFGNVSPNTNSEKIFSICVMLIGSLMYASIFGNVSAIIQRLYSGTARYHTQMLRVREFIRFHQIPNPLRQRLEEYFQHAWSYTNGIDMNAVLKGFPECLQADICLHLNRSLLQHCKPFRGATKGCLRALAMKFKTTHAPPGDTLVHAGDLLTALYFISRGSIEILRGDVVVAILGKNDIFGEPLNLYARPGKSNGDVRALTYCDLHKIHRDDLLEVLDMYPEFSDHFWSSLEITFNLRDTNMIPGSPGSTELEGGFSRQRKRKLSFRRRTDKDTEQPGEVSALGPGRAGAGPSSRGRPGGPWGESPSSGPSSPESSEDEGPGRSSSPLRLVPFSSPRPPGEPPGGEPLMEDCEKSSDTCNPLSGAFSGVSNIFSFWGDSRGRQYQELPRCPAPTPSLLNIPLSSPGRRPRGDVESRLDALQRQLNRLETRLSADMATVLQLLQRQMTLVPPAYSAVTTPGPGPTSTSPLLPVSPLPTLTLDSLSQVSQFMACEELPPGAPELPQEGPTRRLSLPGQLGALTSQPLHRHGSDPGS
Sequence of Cytochrome P450 3A4 (P08684 whole entry): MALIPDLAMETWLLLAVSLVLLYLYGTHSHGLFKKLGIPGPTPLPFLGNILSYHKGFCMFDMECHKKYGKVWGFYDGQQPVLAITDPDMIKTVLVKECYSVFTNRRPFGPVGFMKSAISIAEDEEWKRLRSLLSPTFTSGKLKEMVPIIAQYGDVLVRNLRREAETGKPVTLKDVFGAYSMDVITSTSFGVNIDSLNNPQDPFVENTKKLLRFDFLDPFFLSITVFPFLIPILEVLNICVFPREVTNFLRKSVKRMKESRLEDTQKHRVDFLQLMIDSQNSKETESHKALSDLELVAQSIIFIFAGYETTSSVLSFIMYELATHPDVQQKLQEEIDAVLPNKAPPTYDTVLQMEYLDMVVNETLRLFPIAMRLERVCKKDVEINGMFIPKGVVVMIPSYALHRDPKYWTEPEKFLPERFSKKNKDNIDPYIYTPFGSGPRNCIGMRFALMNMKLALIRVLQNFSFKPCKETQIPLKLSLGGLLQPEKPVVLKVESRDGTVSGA

SMILES	IC50 (KARPAS-299) [nM]	IC50 (BaF3) [nM]	solubility [1] [µM]	INH (Cytochrome P450 3A4) [µM]	microsomal CLint [2] [µL/min/mg]	microsomal CLint [3] [µL/min/mg]	microsomal CLint [4] [µL/min/mg]	IC50 [5] [nM]	bioavailability [6] [%]	IC50 [7] [nM]
CCN1CCC(c2cc(OC(C)C)c(Nc3ncc(Cl)c(Nc4ccccc4S(=O)(=O)C(C)C)n3)cc2C)CC1	11.1	4120	–	–	–	–	–	–	–	–
CCN1CCC(c2cc(OC(C)C)c(Nc3ncc(C)c(Nc4ccccc4S(=O)(=O)C(C)C)n3)cc2C)CC1	10.5	4000	–	–	–	–	–	–	–	–
CC(C)Oc1cc(N2CCC(N3CCN(C)CC3)CC2)ccc1Nc1ncc(Cl)c(Nc2ccccc2S(=O)(=O)C(C)C)n1	25.5	3400	–	–	–	–	–	–	–	–
CC(C)Oc1nc(C2CCNCC2)ncc1Nc1ncc(Cl)c(Nc2ccccc2S(=O)(=O)C(C)C)n1	33.3	3800	138 (≈ 75.4 µg/mL)	9.3	16	21	18	400	–	–
Cc1cc(Nc2ncc(Cl)c(Nc3ccccc3S(=O)(=O)C(C)C)n2)c(OC(C)C)cc1C1CCN(CC(F)F)CC1	294	> 10000	–	–	–	–	–	–	–	–
Cc1cc(Nc2ncc(Cl)c(Nc3ccccc3S(=O)(=O)C(C)C)n2)c(OC2CCC2)cc1C1CCNCC1	13.1	2520	< 2	7.3	15	15	15	–	–	–
COCCN1CCC(c2cc(OC(C)C)c(Nc3ncc(C)c(Nc4ccccc4S(=O)(=O)C(C)C)n3)cc2C)CC1	22.4	4410	–	–	–	–	–	–	–	–
Cc1cc(Nc2cc(Nc3ccccc3S(=O)(=O)C(C)C)c(Cl)cn2)c(OC(C)C)cc1C1CCN(C)CC1	5510	5410	–	–	–	–	–	–	–	–
Cc1cc(Nc2ncc(Cl)c(Nc3ccccc3S(=O)(=O)C(C)C)n2)c(OC(C)C)cc1C1CCN(C(C)C)CC1	14.5	3860	–	–	–	–	–	–	–	–
Cc1cc(Nc2ncc(C)c(Nc3ccccc3S(=O)(=O)C(C)C)n2)c(OC(C)C)cc1C1CCNCC1	13.1	2880	–	–	–	–	–	–	–	–
Cc1cc(Nc2ncc(Cl)c(Nc3ccccc3S(=O)(=O)C(C)C)n2)c(OC(C)C)cc1C1CCN(CC(N)=O)CC1	7.9	7540	–	–	–	–	–	–	–	–
COCCN1CCC(c2cc(OC(C)C)c(Nc3ncc(Cl)c(Nc4ccccc4S(=O)(=O)C(C)C)n3)cc2C)CC1	16.1	4970	–	–	–	–	–	–	–	–
Cc1cc(Nc2ncc(Cl)c(Nc3ccccc3S(=O)(=O)C(C)C)n2)c(OC(C)C)cc1C1CCN(C(=O)CN(C)C)CC1	21.7	2740	4 (≈ 2.57 µg/mL)	0.6	46	45	21	–	–	–
Cc1cc(Nc2ncc(Cl)c(Nc3ccccc3S(=O)(=O)C3CCC3)n2)c(OC(C)C)cc1C1CCNCC1	13.5	2460	–	–	–	–	–	–	–	–
Cc1cc(Nc2ncc(Cl)c(Nc3ccccc3S(=O)(=O)C(C)C)n2)c(OC(C)C)cc1C1CCN(C2CCN(C)CC2)CC1	100	1420	–	–	–	–	–	–	–	–
Cc1cc(Nc2ncc(Cl)c(Nc3ccccc3S(=O)(=O)C(C)C)n2)c(OC(C)C)cc1C1CCN(C)CC1	11.2	4000	64 (≈ 36.6 µg/mL)	2.1	17	15	4	–	–	–
CC(C)Oc1cc(C2CCNCC2)ccc1Nc1ncc(Cl)c(Nc2ccccc2S(=O)(=O)C(C)C)n1	7.8	3010	4 (≈ 2.18 µg/mL)	1.4	15	15	15	–	12	–
Cc1cc(Nc2ncc(Cl)c(Nc3ccccc3S(=O)(=O)N(C)C)n2)c(OC(C)C)cc1C1CCN(C)CC1	14.3	1190	–	–	–	–	–	–	–	–
Cc1cc(Nc2ncc(Cl)c(Nc3ccccc3S(=O)(=O)C(C)C)n2)c(OC(C)C)cc1C1CCNC(=O)C1 (centres undefined)	38.4	> 10000	–	–	–	–	–	–	–	–
Cc1cc(Nc2ncc(C)c(Nc3ccccc3S(=O)(=O)C(C)C)n2)c(OC(C)C)cc1C1CCN(CCO)CC1	23.8	> 10000	–	–	–	–	–	–	–	–
Cc1cc(Nc2ncc(Cl)c(Nc3ccccc3S(=O)(=O)C(C)C)n2)c(OC(C)C)cc1C1CCN(CC(=O)O)CC1	15.3	> 10000	–	–	–	–	–	–	–	–
Cc1cc(Nc2ncc(Cl)c(Nc3ccccc3S(=O)(=O)C(C)C)n2)c(OC(C)C)cc1C1CCN(CCO)CC1	–	4340	36 (≈ 21.7 µg/mL)	2.5	15	15	14	–	–	–
Cc1cc(Nc2ncc(C)c(Nc3ccccc3S(=O)(=O)C(C)C)n2)c(OC(C)C)cc1C1CCN(C)CC1	15.6	4080	144 (≈ 79.5 µg/mL)	9.8	8	15	14	1100	–	20000
